Patent US11912699B2, “Tau-protein targeting compounds and associated” (Arvinas Operations, Inc., priority 2019, dated 2024)
Structures can show the parent of a compound that is named as a salt. Where two headings read alike, the source gives them in different places.

Target: T1, Tau P301L (Homo sapiens, UniProt P10636, P618L)
T1 construct: expressed in transfected cells
Test: In vitro tau degradation assay in CHOK1 Tau P301L cells (sarkosyl insoluble tau, WES)
Type: cell-based
Conditions: CHO-K1, relative to DMSO doxycycline control, read-out: Tau Protein Degradation effect at 1 μM
Protocol: Exemplary bifunctional molecules of the present disclosure are represented by the structures in Table 1, which includes associated data. In vitro tau protein degradation data in CHOK1 Tau P301L cells, as described below, is reported based on the remaining tau protein in the sarkosyl insoluble pellet following treatment of cells for 48 hours with test compound at the 1 μM concentration where the last 24 hours doxycycline was removed. The data are represented relative to DMSO doxycycline control: • A ≤50% of tau protein remaining (>50% of tau protein degraded) • B >50% of tau protein remaining ([…] of tau protein degraded)
Data for compounds in Table 1 was generated using in vitro tau Degradation Assay protocol as described in Methods for FIGS. 2A and 2B below.
FIGS. 2A and 2B. (2A) Tau expression was induced by addition (+) of doxycycline (1 μg/ml) to ChoK1-Tau P301L clone D1.
In vitro tau Degradation Assay for FIGS. 2A and 2B. T-Rex CHOK1 cells are maintained in Ham's F-12 Nutrient Mix (ThermoFisher) plus 10% Fetal Bovine Serum Tetracycline Negative (Corning) with 10 ug/mL Blasticidin S HCl (Gibco) and 200 ug/mL Zeocin (100 mg/mL, Invitrogen). A stable clone expressing Tau P301L in the presence of doxycycline (1 μg/ml), clone D1 was selected. Compounds were diluted to indicated concentrations and used to treat cells for the indicated times. Cells were harvested from either 96, 24, 6, or 10 cm dishes coated with Poly-D-Lysine (Corning) in ice cold PBS or Buffer H+HALT Protease and phosphatase inhibitors (Thermofisher). Sarkosyl Insoluble tau was isolated as described in Eckermann et al. and Greenberg and Davies, accordingly. WES™ capillary electrophoresis analysis was performed on the Sarkosyl Insoluble tau fraction using Tau1 antibody (Milipore) unless otherwise indicated, as specified in the manufacturers specification (ProteinSimple).

[1] = remaining tau protein in sarkosyl insoluble pellet, CHOK1 Tau P301L cells treated 48 hours with test compound at 1 μM, doxycycline removed for the last 24 hours
[2] = CHOK1 Tau P301L cells, remaining tau in sarkosyl insoluble pellet, 48 hours with test compound at 1 μM, doxycycline removed for last 24 hours

T1 sequence (P10636 1-441 isoform P10636-8 P301L): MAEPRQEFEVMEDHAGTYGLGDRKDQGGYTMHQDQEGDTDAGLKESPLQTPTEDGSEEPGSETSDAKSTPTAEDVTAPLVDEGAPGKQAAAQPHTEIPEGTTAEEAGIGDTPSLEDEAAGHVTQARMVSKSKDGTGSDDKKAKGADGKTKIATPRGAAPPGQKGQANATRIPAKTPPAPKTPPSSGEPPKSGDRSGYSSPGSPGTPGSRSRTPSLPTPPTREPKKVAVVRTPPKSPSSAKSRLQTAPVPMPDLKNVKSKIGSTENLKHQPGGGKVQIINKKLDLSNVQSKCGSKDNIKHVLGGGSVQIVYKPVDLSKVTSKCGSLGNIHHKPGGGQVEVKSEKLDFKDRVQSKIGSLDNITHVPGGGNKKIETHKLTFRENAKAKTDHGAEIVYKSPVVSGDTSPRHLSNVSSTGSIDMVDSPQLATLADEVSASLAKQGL

remaining activity at 1 µM [1] [%]	remaining activity at 1 µM [2] [%]	SMILES
< 50		O=C1CCC(N2C(=O)c3ccc(N4CCN(C(=O)CC5CCN(c6ncc(-c7ccc8c9cnccc9n(C(F)F)c8c7)cc6F)CC5)CC4)cc3C2=O)C(=O)N1 (stereo not shown) [Compound 592, 5-(4-(2-(1-(5-(5-(difluoromethyl)-5H-pyrido[4,3-b]indol-7-yl)-3-fluoropyridin-2-yl)piperidin-4-yl)acetyl)piperazin-1-yl)-2-(2,6-dioxopiperidin-3-yl)isoindoline-1,3-dione]
> 50		Cn1c2ccncc2c2ccc(-c3ccc(N4CC(C(=O)N5CCN(CCCCCOc6ccc7c(c6)C(=O)N(C6CCC(=O)NC6=O)C7=O)CC5)C4)nc3)cc21 (stereo not shown) [Compound 446, 2-(2,6-dioxopiperidin-3-yl)-5-((5-(4-(1-(5-(5-methyl-5H-pyrido[4,3-b]indol-7-yl)pyridin-2-yl)azetidine-3-carbonyl)piperazin-1-yl)pentyl)oxy) isoindoline-1,3-dione]
< 50		Cn1c2ccncc2c2ccc(C#CC3CCN(CCN4CCN(c5ccc6c(c5)C(=O)N(C5CCC(=O)NC5=O)C6=O)CC4)CC3)cc21 (stereo not shown) [Compound 533, 2-(2,6-dioxopiperidin-3-yl)-5-(4-(2-(4-((5-methyl-5H-pyrido[4,3-b]indol-7-yl)ethynyl)piperidin-1-yl)ethyl)piperazin-1-yl)isoindoline-1,3-dione]
< 50		Cn1c2ccncc2c2ccc(-c3ccc(O[C@H]4C[C@H](N(C)C5CC6(C5)CN(CCC5CCN(c7ccc8c(c7)C(=O)N(C7CCC(=O)NC7=O)C8=O)CC5)C6)C4)nc3)cc21 (stereo partly shown) [Compound 401, 2-(2,6-dioxopiperidin-3-yl)-5-(4-(2-(6-(methyl((1r,3r)-3-((5-(5-methyl-5H-pyrido[4,3-b]indol-7-yl)pyridin-2-yl)oxy)cyclobutyl)amino)-2-azaspiro[3.3]heptan-2-yl)ethyl)piperidin-1-yl) isoindoline-1,3-dione]
	< 50	CC(C)(C1CCN(c2ncc(-c3ccc4c5cnccc5n(C(F)F)c4c3)cc2F)CC1)N1CCN(c2ccc3c(c2)C(=O)N(C2CCC(=O)NC2=O)C3=O)CC1 (stereo not shown) [Compound 609, 5-(4-(2-(1-(5-(5-(difluoromethyl)-5H-pyrido[4,3-b]indol-7-yl)-3-fluoropyridin-2-yl)piperidin-4-yl)propan-2-yl)piperazin-1-yl)-2-(2,6-dioxopiperidin-3-yl)isoindoline-1,3-dione]
> 50		Cn1c2ccncc2c2ccc(-c3ccc(OC4CC5(C4)CN(C(=O)CN4CCN(CC6CN(c7ccc8c(c7)C(=O)N(C7CCC(=O)NC7=O)C8=O)C6)CC4)C5)nc3)cc21 (stereo not shown) [Compound 458, 2-(2,6-dioxopiperidin-3-yl)-5-(3-((4-(2-(6-((5-(5-methyl-5H-pyrido[4,3-b]indol-7-yl)pyridin-2-yl)oxy)-2-azaspiro [3.3]heptan-2-yl)-2-oxoethyl)piperazin-1-yl)methyl)azetidin-1-yl)isoindoline-1,3-dione]
< 50		Cc1ccc(-c2cn3ccc(N(C)CCOCCOCCOc4ccc5c(c4)C(=O)N(C4CCC(=O)NC4=O)C5=O)cc3n2)cc1 (stereo not shown) [Compound 463, 2-(2,6-dioxopiperidin-3-yl)-5-(2-(2-(2-(methyl(2-(p-tolyl)imidazo[1,2-a]pyridin-7-yl)amino)ethoxy)ethoxy)ethoxy)isoindoline-1,3-dione]
< 50		O=C1CCC(N2C(=O)c3ccc(N4CCN(CC#CC5CCN(c6ncc(-c7ccc8c9cnccc9n(C(F)F)c8c7)cc6F)CC5)CC4)cc3C2=O)C(=O)N1 (stereo not shown) [Compound 574, 5-(4-(3-(1-(5-(5-(difluoromethyl)-5H-pyrido[4,3-b]indol-7-yl)-3-fluoropyridin-2-yl)piperidin-4-yl)prop-2-yn-1-yl)piperazin-1-yl)-2-(2,6-dioxopiperidin-3-yl)isoindoline-1,3-dione]
	< 50	O=C1CCC(N2C(=O)c3ccc(N4CCN(CCC5CCN(Cc6ncc(-c7ccc8c9cnccc9n(C(F)F)c8c7)cc6F)CC5)CC4)cc3C2=O)C(=O)N1 (stereo not shown) [Compound 632, 5-(4-(2-(1-((5-(5-(difluoromethyl)-5H-pyrido[4,3-b]indol-7-yl)-3-fluoropyridin-2-yl)methyl)piperidin-4-yl)ethyl)piperazin-1-yl)-2-(2,6-dioxopiperidin-3-yl)isoindoline-1,3-dione]
< 50		Cn1c2ccncc2c2ccc(-c3ccc(O[C@H]4C[C@H](CN5CCN(CCCCCOc6ccc7c(c6)C(=O)N(C6CCC(=O)NC6=O)C7=O)CC5)C4)nc3)cc21 (stereo partly shown) [Compound 387, 2-(2,6-dioxopiperidin-3-yl)-5-((5-(4-(((1r,3r)-3-((5-(5-methyl-5H-pyrido[4,3-b]indol-7-yl)pyridin-2-yl)oxy)cyclobutyl)methyl)piperazin-1-yl)pentyl)oxy) isoindoline-1,3-dione]
> 50		O=C1CCC(N2C(=O)c3ccc(OCCOCCOCCN4CCC(c5ccc6c(c5)[nH]c5ccncc56)CC4)cc3C2=O)C(=O)N1 (stereo not shown) [Compound 431]
	< 50	O=C1CCC(N2C(=O)c3cc(N4CCN(CCC5CCN(c6ncc(-c7ccc8c9cnccc9n(C(F)F)c8c7)cc6F)CC5)CC4)cc(C(F)F)c3C2=O)C(=O)N1 (stereo not shown) [Compound 641, 4-(difluoromethyl)-6-(4-(2-(1-(5-(5-(difluoromethyl)-5H-pyrido[4,3-b]indol-7-yl)-3-fluoropyridin-2-yl)piperidin-4-yl)ethyl)piperazin-1-yl)-2-(2,6-dioxopiperidin-3-yl)isoindoline-1,3-dione]
	> 50	O=C1CCC(N2C(=O)c3ccc(N4CCN(CC5CC6(CCN(c7ncc(-c8ccc9c%10cnccc%10n(C(F)F)c9c8)cc7F)CC6)C5)CC4)cc3C2=O)C(=O)N1 (stereo not shown) [Compound 614, 5-(4-((7-(5-(5-(difluoromethyl)-5H-pyrido[4,3-b]indol-7-yl)-3-fluoropyridin-2-yl)-7-azaspiro[3.5]nonan-2-yl)methyl)piperazin-1-yl)-2-(2,6-dioxopiperidin-3-yl)isindoline-1,3-dione]
	> 50	O=C1CCC(N2C(=O)c3cc(F)c(N4CCN(CC5CCN(c6ncc(-c7ccc8c9cnccc9n(C(F)F)c8c7)cc6F)CC5)CC4)cc3C2=O)C(=O)N1 (stereo not shown) [Compound 608, 5-(4-((1-(5-(5-(difluoromethyl)-5H-pyrido[4,3-b]indol-7-yl)-3-fluoropyridin-2-yl)piperidin-4-yl)methyl)piperazin-1-yl)-2-(2,6-dioxopiperidin-3-yl)-6-fluoroisoindoline-1,3-dione]

SMILES	remaining activity at 1 µM [1] [%]	remaining activity at 1 µM [2] [%]
O=C1CCC(N2C(=O)c3ccc(OCCCCCN4CCC(OC5CN(c6ccc(-c7ccn8c(n7)nc7ccccc78)cn6)C5)CC4)cc3C2=O)C(=O)N1 (stereo not shown) [Compound 450, 2-(2,6-dioxo-3-piperidyl)-5-[5-[4-[1-(5-pyrimido[1,2-a]benzimidazol-2-yl-2-pyridyl)azetidin-3-yl]oxy-1-piperidyl]pentoxy]isoindoline-1,3-dione formate]	< 50	
Cn1c2ccncc2c2ccc(-c3ccc(O[C@H]4C[C@H](OC5CCN(c6ccc7c(c6)C(=O)N(C6CCC(=O)NC6=O)C7=O)CC5)C4)nc3)cc21 (stereo partly shown) [Compound 493, 2-(2,6-dioxopiperidin-3-yl)-5-(4-((1r,3r)-3-((5-(5-methyl-5H-pyrido[4,3-b]indol-7-yl)pyridin-2-yl)oxy)cyclobutoxy)piperidin-1-yl) isoindoline-1,3-dione]	< 50	
